According to patent US10786483B2, “Tumescent contravenom drug delivery” (HK Pharma, priority 2016, dated 2020):
Where two headings read alike, the source gives them in different places.

Legend:
platelet aggregation = details: cited from earlier work
[1] = system: lymphatic smooth muscle contraction; details: rats, applied topically; cited from earlier work
[2] = cited from earlier work
[3] = 41 procedures, 14 subjects, 19.2 to 52 mg/kg, over the 24-hour study period
Procedure: Volunteers participated in 1 to 2 infiltration studies without liposuction and then one study with tumescent liposuction totally by local anesthesia.
Individual subjects served as their own controls. Large volume (≥500 mL) tumescent infiltration was accomplished using a peristaltic tumescent infiltration pump (HKSurgical.com, San Clemente, Calif.).
Serum samples were obtained from a peripheral vein using an indwelling 20-gauge IV catheter by a 2-syringe sampling technique. The first syringe contained 2 mL saline to flush the IV catheter and then remove and discard 2 mL of blood.
For each subject, the initial infiltration procedures were done without subsequent liposuction, and the final tumescent infiltration was followed by liposuction after allowing at least 1 hour of detumescence for gradual dispersion of subcutaneous tumescent fluid. Tumescent infiltration procedures were separated by at least 1 week. The liposuction aspirate was collected in clear plastic volumetric canisters. After allowing at least 1 hour for gravitational separation of the lipid and aqueous aspirate, the resulting supernatant fat, infranatant blood-tinged tumescent anesthetic solution, and the total aspirate volume were recorded.
AUC∞, Cmax, and Tmax without and with liposuction were compared by the paired t test.

[4] = Excerpt: Heart rates, before, during, and after tumescent infiltration and immediately after liposuction were compared.
[5] = tolerance interval analysis, probability that Cmax >=6 μg/mL; set-up: species or system human; details: 99% confidence
Procedure: Tolerance intervals were calculated at a 99% level of confidence.

Bee Venom sPLA2 = Bee Venom sPLA2 (Apis mellifera, UniProt P00630); details: cited from earlier work
[6] = precipitation on mixing acyclovir, lidocaine and epinephrine; format: physicochemical
Excerpt: Some drugs are considered incompatible because of precipitation when mixed together in the same solution. […] This tumescent solution can be safely and painlessly injected subcutaneously into a human patient. This is surprising and unexpected because the FDA approved package insert labeling for acyclovir for IV infusion states explicitly the subcutaneous delivery must be avoided. Similar increased solubility and drug-drug compatibility of mixtures of multiple contravenom drugs can be expected with sufficient tumescent dilution. This is a unique and unexpected advantage of tumescent contravenom delivery.

sPLA2 activity in serum [7] = details: human serum; read-out: IC50, inhibitory effect on sPLA2 activity in serum; cited from earlier work
sPLA2 activity in serum [8] = details: rabbit serum; read-out: IC50, inhibitory effect on sPLA2 activity in serum; cited from earlier work
snake venoms = details: mice; cited from earlier work
sPLA2 activity in serum [9] = details: guinea pig serum; read-out: IC50, inhibitory effect on sPLA2 activity in serum; cited from earlier work
sPLA2 activity in serum [10] = details: rat serum; read-out: IC50, inhibitory effect on sPLA2 activity in serum; cited from earlier work
[11] = with liposuction, epinephrine dose 1.6 to 4.3 mg
[12] = without liposuction, epinephrine dose 1.2 to 4.3 mg

Sequence of Bee Venom sPLA2 (P00630 34-167 limits assumed): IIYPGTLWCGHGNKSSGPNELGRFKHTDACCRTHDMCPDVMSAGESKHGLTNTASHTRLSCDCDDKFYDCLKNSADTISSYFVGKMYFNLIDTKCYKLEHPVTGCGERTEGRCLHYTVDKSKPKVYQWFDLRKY

In the case of `CCOC(=O)c1ccc(N)cc1` [benzocaine], the “platelet aggregation induced by ADP” value (platelet aggregation) is given as “inhibit”.
For `CCN(CC)CC(=O)Nc1c(C)cccc1C` [lidocaine], the “lidocaine concentrations that consistently inhibit in-vitro platelet aggregation” value (platelet aggregation; aggregation induced by ADP, epinephrine and collagen) is given as ≥ 0.5 mg/mL, the “effect on platelet aggregation” value (platelet aggregation; at safe systemic concentrations (e.g. ≤6 micrograms/ml)) is given as “no effect” and the “platelet aggregation induced by ADP” value (platelet aggregation) is given as “inhibit”. For the same compound, the lymph transit time [1] was “prolong”, the “survival time after injection of venom” value [1] was “increase” and the “recommended maximal dosage, FDA-approved package insert labeling” value ([2]; lidocaine with epinephrine, infiltration local anesthesia) was 7 mg/kg. For the same compound, the “maximal safe dosage recommended by American Society for Dermatologic Surgery guidelines” value ([2]; liposuction totally by local anesthesia) was 55 mg/kg, the “measured serum lidocaine concentrations, all” value [3] was < 6 µg/mL and the lidocaine-associated adverse event ([4]; one subject, body mass index 20, 45 mg/kg without liposuction, approximately 12 hours after infiltration) was “transient nausea”. For the same compound, the “risk of lidocaine serum concentration >6 μg/mL” value (“risk” below) ([5]; No liposuction, 40 mg/kg) was 1/750, the “risk” value ([5]; No liposuction, 50 mg/kg) was 1/15 and the “risk” value ([5]; No liposuction, 55 mg/kg) was 1/4. The “risk” value ([5]; No liposuction, […] mg/kg) was 1/80, the “risk” value ([5]; With liposuction, 50 mg/kg) was 1/500 and the “risk” value ([5]; With liposuction, 55 mg/kg) was 1/100.
With `CNC[C@H](O)c1ccc(O)c(O)c1` [epinephrine] the “clinical evidence of toxicity” value ([4]; 14 subjects, 41 procedures) was “no clinical evidence”, the episodes of tachycardia ([4]; 41 studies, most patients received oral clonidine 0.1 mg) was “no episodes” and the “mean difference in heart rate before infiltration and after liposuction” value [4, 11] was “+5”. The “range of difference in heart rate before infiltration and after liposuction” value [4, 11] was −12 to +33, the “mean difference in heart rate before and after infiltration” value [4, 12] was −3.4 and the “range of difference in heart rate before and after infiltration” value [4, 12] was −24 to +17.
For `CCc1c(C(=O)C(N)=O)c2c(OCC(=O)OC)cccc2n1Cc1ccccc1` [Me-Varespladib, methyl varespladib], the “IC50, sPLA2 inhibition” value (Bee Venom sPLA2) is listed as “*Indeterminate”.
With `Nc1nc2c(ncn2COCCO)c(=O)[nH]1` [acyclovir] the precipitation on mixing ([6]; 1 gm acyclovir (1 g/20 ml) with 1 gram lidocaine (1 gram/100 ml) with epinephrine (1 mg/L), 120 ml mixture) was “immediate precipitation”, the precipitation on mixing ([6]; 1 gm acyclovir and 1 gm lidocaine in 100 ml, 250 ml and 500 ml of saline) was “precipitation” and the precipitation on mixing ([6]; 1 gm acyclovir, 1 gm lidocaine and 1 mg epinephrine in 1000 ml of saline) was “no precipitation”.
For `CCc1c(C(=O)C(N)=O)c2c(OCC(=O)O)cccc2n1Cc1ccccc1` [Varespladib], the IC50 (sPLA2 activity in serum [7]) is listed as 6.2 nM, the IC50 (sPLA2 activity in serum [8]) is listed as 5 nM and the “neutralizing a wide variety of snake venoms” value (snake venoms) is listed as “effective”. The IC50 (sPLA2 activity in serum [9]) was 3.2 nM and the IC50 (sPLA2 activity in serum [10]) was 8.1 nM.
In the case of `CCCCN1CCCCC1C(=O)Nc1c(C)cccc1C` (centres unmarked) [bupivacaine], the “platelet aggregation induced by ADP” value (platelet aggregation) is given as “inhibit”.
